Reference: PubChem BioAssay (NCI)
Where “and” joins values, the source holds several entries; their conditions need not be identical. Equal values may be shown once.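 Exposure lasted 48 hours, with cells grown in 96-well plates and compounds tested at five concentrations. GI50: concentration for 50% inhibition of growth. TGI: total growth inhibition.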

Legend:
Test in all cases: NCI tumour cell line growth inhibition, 48 h
[1] = tested on: DMS 114 small cell lung
[2] = tested on: KM20L2 colon
[3] = tested on: DLD-1 colon
[4] = tested on: HOP-18 NSCLC
[5] = tested on: M19-MEL melanoma
[6] = tested on: DMS 273 small cell lung
[7] = tested on: XF 498 CNS
[8] = tested on: RXF-631 renal
[9] = tested on: MDA-N

Structure (SMILES) | TGI [1] [µM] | TGI [2] [µM] | TGI [3] [µM] | TGI [4] | TGI [5] [µM] | TGI [6] [µM] | TGI [7] [µM] | TGI [8] [µM] | further results
COc1ccc(OC)c(/C=C/NC=O)c1 | > 100 | > 100 | > 100 | > 100 µM | > 100 | > 100 | > 100 |  | 
CNC=O.[O]=[Ge].[O]=[Ge].[O]=[Ge].[O]=[Ge][OH].[O]=[Ge][OH] | > 100 | > 100 | > 100 | > 100 µM | > 100 | > 100 | > 100 |  | 
CSc1ccc(/C=C2/C[N+](C)(C)C/C(=C/c3ccc(SC)cc3)C2=O)cc1 | 21.1 |  | 22.8 | 79.2 µM | 19.8 |  | 29.1 | > 100 | 
COC(=O)C1=C(c2ccc3c(c2)OCO3)O[C@H](c2ccc3c(c2)OCO3)[C@H]1COC(C)=O | > 100 | > 100 | > 100 | > 100 µM | > 100 | > 100 | > 100 |  | 
CN(C)C(=S)/N=c1\ss/c(=N\C(=S)N(C)C)n1-c1ccc2c(c1)OCO2 | > 100 | > 100 |  |  |  | > 100 |  |  | 
Cc1cccc(N2C(=O)C(Cl)=C(Cl)C2=O)c1 | > 100 | > 100 | > 60.7 | > 100 µM | > 100 | > 100 | > 100 |  | 
O=C(/C=C/c1ccccc1Cl)c1ccccc1Cl | 34.8 | 33.3 | 33.4 | 89.2 µM | 61 | 31.1 |  |  | 
COc1cc([N+](=O)[O-])ccc1NC(=O)C(F)(F)F |  |  |  |  |  |  |  |  | TGI [9]: > 100 µM
CSc1nc(NC2OC(COC(C)=O)C(OC(C)=O)C(OC(C)=O)C2OC(C)=O)c2c(OC(C)=O)c(C)c(=O)oc2n1 (configuration not stated) | > 100 | > 100 | > 100 | > 100 µM | > 100 |  | > 100 |  | 
CC(=O)[O][Hg][c]1c(C)c(C)c(C)c(C)c1C |  |  |  |  |  |  |  |  | GI50 [9]: 1370 nM; TGI [9]: 2.69 µM
CCc1cccc(C)c1NC(C)=O | > 100 | > 100 | > 100 |  | > 100 | > 100 | > 100 | > 100 | 
Cc1cccc(C(C)(C)C)c1NC(=O)CCc1n[nH]c(=S)o1 | > 100 | > 100 | > 100 | > 100 µM | > 100 | > 100 |  |  | 
O=S(O)CCCCSSCCCCSSCCCCS(=O)O | > 100 | > 100 | > 100 | > 100 µM | > 100 | > 100 | 21.4 | > 100 | 
O=C(O)C(Sc1ccc(Cl)cc1)Sc1ccc(Cl)cc1 |  |  |  |  |  |  |  |  | TGI [9]: > 100 µM
CNC1C(=O)C(C)C(O)(C(CC(C)C(O)/C=C/C=C/CNC(=O)C(C)(C)C(O)\C(C)=C/C=C\C=C\Cc2cnc(C)o2)OC)C12C(=O)OC2COC (configuration not stated) (tested in a mixture with another compound) |  |  |  |  |  |  |  |  | TGI [9]: 71.4 µM
O=C(NC1CCCCCC1)C1C(=O)N(C2CCCCCC2)C(=O)/C1=N\O (configuration not stated) | 84.5 | 49 | > 100 | > 100 µM | 75.6 |  |  |  | 
COc1ccc(-c2cc3c(nn2)-c2ccccc2C3=O)cc1 |  |  |  |  |  |  |  |  | TGI [9]: > 10 µM
C#CC[C@]12CC(=O)CC[C@H]1CC(=O)C2 |  | > 100 | > 100 | > 100 µM | > 100 | > 100 |  | > 100 | 
COC(=O)c1cc2c(c(C(=O)OC)c1O)C(=O)C=CC2=O | > 78.8 | > 56.4 | > 46.1 | 9.1 µM and 29.9 µM | > 58.5 | > 71.6 | > 100 | > 71.2 | GI50 [1]: > 9100 nM; GI50 [2]: > 9.1 µM; GI50 [3]: > 9.1 µM; GI50 [4]: 16.3 µM; GI50 [5]: > 9.1 µM; GI50 [6]: > 9.1 µM; GI50 [7]: 37.8 µM; GI50 [8]: > 9.1 µM
CCCCCCCCCCC(O)C1CCC(C2CCC(C(O)CCCCC(O)CCCCCC(O)CC3=CC(C)OC3=O)O2)O1 (configuration not stated) |  |  |  |  |  |  |  |  | GI50 [9]: > 25000 nM; TGI [9]: > 25 µM
CC(=O)SCCC1c2[nH]c3ccccc3c2CCN1O (configuration not stated) | > 100 | > 100 | > 100 | > 100 µM | > 100 | > 100 |  |  | 

Structure (SMILES) | TGI [1] [µM] | TGI [2] [µM] | TGI [3] [µM] | TGI [4] | TGI [5] [µM] | TGI [6] [µM] | TGI [7] [µM] | TGI [8] [µM] | further results
CCC1(O)C(=O)OCc2c1cc1n(c2=O)Cc2cc3c(N)cccc3nc2-1 (configuration not stated) | 0.504 | 20.5 | > 56.4 | 0.903 µM | 1.29 | 0.209 | 1.85 | 1.62 | TGI [9]: 2.57 µM
CCC(C)(O)c1cn(-c2cccc(S(=O)(=O)O)c2)nn1 (configuration not stated) | > 100 | > 100 | > 100 | > 100 µM |  | > 100 | > 100 |  | 
CC(C)CC(N)C(=O)O (configuration not stated) |  |  |  |  |  |  |  |  | TGI [9]: > 100 µM
COc1ccc(C(=O)O)c(Cc2cccc3ccccc23)c1 | > 100 | > 100 | > 100 | > 100 µM | > 100 | > 100 |  | > 100 | 
O=C(O)c1cc(N=Nc2ccc([As](=O)(O)O)cc2)ccc1O |  |  |  |  |  |  |  |  | TGI [9]: > 100 µM
Cc1ccc(NC(=O)C2C(=O)N(c3ccc(C)c(C)c3)C(=O)/C2=N/O)cc1C (configuration not stated) | > 100 | > 100 | > 100 | > 100 µM |  | > 100 | > 100 | > 100 | 
Nc1c(-c2ccc(Br)cc2)[n+]([O-])c2ccccc2[n+]1[O-] | > 100 | > 100 | > 100 | > 100 µM |  | > 100 |  | > 100 | 
Cc1cc(C2CCCCC2)n(O)c(=O)c1 | > 100 | > 100 | > 100 | > 100 µM | > 100 |  | 35.8 | > 100 | 
COC(=O)CSc1n[nH]c(-c2ccc(O)c([N+](=O)[O-])c2)n1 |  | > 100 | > 100 |  |  | > 100 | > 100 | > 100 | 
CN(C)C(=S)SN(C)C(=O)Nc1ccccc1 | 27.4 | > 100 | > 100 |  | > 31.6 | 77.6 |  | > 100 | TGI [9]: 43.3 µM
CCOC(=O)NC(=O)c1cn(CCCOC(=O)NCCCCCCNC(=O)OCCCn2c(=O)c(C(=O)NC(=O)OCC)cn(C)c2=O)c(=O)n(C)c1=O | > 100 | > 100 | > 100 | > 100 µM | > 100 | > 100 |  | > 100 | 
O=C1C2=C(CC3C(C2)C3(Br)Br)C(=O)C2=C1CC1C(C2)C1(Br)Br (configuration not stated) |  | > 100 | > 100 | > 100 µM | > 100 | > 100 | > 100 | > 100 | 
O=c1[nH]c(=O)n(C2CC(O)C(CS)O2)cc1F (configuration not stated) | > 100 | > 100 | > 100 | > 100 µM | > 100 |  | > 100 |  | TGI [9]: > 100 µM
N#Cc1cnsc1 | > 100 | > 100 | > 100 | > 100 µM | > 100 | > 100 | > 100 | > 100 | 
NCCCNCCSSCCCCS(=O)O | > 100 | > 100 | > 100 | > 100 µM | 40.5 | > 100 | 37.4 | > 100 | 
CC(C)(C)C1=CC(=CC=C2C=CN(CCCCCCCCCCCO)C=C2)C=C(C(C)(C)C)C1=O |  |  |  |  |  |  |  |  | TGI [9]: 3.04 µM
Cc1ccc(N=NC(C(=O)c2ccccc2)C(=O)c2ccccc2)cc1 | 54.7 | 60.9 | 76 |  | 41.2 | 58.8 | 54.6 | > 100 | 
CCCCCCCCCCCCCCCCOP(=O)(O)Oc1ccc(/C=C\c2ccc(OP(=O)(O)OCCCCCCCCCCCCCCCC)cc2)cc1 | 49.4 | > 100 | > 100 | > 100 µM | > 100 | 62.4 |  | > 100 | 
Cc1cc(NS(=O)(=O)c2ccc(NC(=O)c3cccc4c(=O)c5ccccc5[nH]c34)cc2)no1 | > 100 | > 100 | > 100 | 28.2 µM | > 100 |  | 55.4 |  | 
CC(C)=[CH][Sb]([Br])([CH]=C(C)C)([CH]=C(C)C)[CH]=C(C)C | 4.85 | > 100 | > 100 |  | > 100 | 56.8 | > 100 |  | GI50 [1]: 1610 nM; GI50 [2]: 13.1 µM; GI50 [3]: 37.3 µM; GI50 [5]: 6.14 µM; GI50 [6]: 5.98 µM; GI50 [7]: 16.4 µM
Cc1ccc(C(=O)/C=C/c2ccccc2O)c(C)c1 | > 100 | > 100 | > 100 |  | 3.07 | > 100 |  |  | 
